Assay [1] is described as follows: Ratio between IC50 values of alpha 1 and alpha 2 receptors.
Assay [2] addresses T1, Adrenergic receptor alpha-2 (Rattus norvegicus, UniProt P22086+P19328+P22909).
T1 sequence (P22086 whole entry): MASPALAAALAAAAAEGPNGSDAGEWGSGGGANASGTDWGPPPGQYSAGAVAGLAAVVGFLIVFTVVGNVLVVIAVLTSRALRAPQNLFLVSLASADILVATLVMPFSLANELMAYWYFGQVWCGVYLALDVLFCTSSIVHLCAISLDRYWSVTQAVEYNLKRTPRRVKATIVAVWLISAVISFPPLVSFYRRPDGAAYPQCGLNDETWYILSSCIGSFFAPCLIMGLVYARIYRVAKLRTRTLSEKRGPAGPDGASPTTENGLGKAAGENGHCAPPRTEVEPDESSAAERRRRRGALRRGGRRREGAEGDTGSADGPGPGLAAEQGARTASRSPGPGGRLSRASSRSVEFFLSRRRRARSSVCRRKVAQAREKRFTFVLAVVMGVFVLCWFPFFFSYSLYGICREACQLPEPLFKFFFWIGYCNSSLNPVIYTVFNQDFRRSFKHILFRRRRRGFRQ
T1 sequence (P19328 whole entry): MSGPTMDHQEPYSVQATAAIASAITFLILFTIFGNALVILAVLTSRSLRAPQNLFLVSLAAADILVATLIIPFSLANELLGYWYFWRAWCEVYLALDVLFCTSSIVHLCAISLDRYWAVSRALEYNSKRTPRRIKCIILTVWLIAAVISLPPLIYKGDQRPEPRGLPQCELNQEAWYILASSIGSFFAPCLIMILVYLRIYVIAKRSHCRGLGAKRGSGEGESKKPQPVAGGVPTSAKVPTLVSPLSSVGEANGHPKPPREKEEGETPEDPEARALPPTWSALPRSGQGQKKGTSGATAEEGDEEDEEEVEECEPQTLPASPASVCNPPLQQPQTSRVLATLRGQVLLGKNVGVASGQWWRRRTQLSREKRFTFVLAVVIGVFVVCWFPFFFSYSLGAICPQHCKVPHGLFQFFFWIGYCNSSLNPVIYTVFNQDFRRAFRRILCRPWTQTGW
T1 sequence (P22909 whole entry): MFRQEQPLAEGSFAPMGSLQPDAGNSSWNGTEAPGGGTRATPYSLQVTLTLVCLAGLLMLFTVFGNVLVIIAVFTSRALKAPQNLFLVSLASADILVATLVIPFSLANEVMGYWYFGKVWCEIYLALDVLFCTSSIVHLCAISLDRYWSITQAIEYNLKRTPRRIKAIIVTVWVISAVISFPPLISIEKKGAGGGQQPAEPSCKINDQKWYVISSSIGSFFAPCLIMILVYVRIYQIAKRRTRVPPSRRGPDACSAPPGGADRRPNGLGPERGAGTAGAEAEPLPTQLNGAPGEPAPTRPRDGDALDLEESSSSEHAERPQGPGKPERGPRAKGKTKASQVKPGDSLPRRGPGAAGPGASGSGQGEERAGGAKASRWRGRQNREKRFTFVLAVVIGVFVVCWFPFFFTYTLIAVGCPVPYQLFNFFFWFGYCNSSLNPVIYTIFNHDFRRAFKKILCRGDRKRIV
Briefly: Tested for its binding affinity against alpha-2 receptor in rat brain membrane. Type of assay: cell membranes.

In assay [3] the target is T2, Adrenergic receptor alpha-1 (Rattus norvegicus, UniProt P15823+P23944+P43140).
T2 sequence (P15823 whole entry): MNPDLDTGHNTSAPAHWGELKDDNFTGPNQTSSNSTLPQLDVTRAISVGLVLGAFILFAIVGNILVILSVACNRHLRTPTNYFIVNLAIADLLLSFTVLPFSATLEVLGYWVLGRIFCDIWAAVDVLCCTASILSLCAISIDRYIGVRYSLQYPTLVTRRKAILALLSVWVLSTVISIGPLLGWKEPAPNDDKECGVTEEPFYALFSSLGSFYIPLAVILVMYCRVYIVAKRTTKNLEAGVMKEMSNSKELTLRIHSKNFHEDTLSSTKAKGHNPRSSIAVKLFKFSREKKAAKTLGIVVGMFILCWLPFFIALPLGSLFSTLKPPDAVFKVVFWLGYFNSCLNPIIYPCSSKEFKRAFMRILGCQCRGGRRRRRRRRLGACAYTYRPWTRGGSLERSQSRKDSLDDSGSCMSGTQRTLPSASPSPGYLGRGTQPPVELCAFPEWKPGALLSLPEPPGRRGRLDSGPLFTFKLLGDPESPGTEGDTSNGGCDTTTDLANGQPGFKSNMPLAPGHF
T2 sequence (P23944 whole entry): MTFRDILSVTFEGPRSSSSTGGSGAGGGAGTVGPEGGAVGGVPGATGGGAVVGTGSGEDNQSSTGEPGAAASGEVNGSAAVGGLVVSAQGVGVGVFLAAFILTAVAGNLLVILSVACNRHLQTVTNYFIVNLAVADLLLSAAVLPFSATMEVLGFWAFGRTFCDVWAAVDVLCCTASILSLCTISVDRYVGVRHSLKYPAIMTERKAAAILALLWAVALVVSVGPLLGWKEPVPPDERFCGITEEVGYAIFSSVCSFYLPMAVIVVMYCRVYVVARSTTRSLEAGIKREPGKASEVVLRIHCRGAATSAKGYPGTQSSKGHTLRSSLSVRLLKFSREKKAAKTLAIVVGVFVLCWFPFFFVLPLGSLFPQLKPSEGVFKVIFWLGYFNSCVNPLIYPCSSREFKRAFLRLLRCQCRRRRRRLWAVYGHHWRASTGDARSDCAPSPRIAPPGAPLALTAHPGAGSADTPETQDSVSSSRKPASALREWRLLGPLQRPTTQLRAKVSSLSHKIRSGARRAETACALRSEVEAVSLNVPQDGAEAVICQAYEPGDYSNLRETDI
T2 sequence (P43140 whole entry): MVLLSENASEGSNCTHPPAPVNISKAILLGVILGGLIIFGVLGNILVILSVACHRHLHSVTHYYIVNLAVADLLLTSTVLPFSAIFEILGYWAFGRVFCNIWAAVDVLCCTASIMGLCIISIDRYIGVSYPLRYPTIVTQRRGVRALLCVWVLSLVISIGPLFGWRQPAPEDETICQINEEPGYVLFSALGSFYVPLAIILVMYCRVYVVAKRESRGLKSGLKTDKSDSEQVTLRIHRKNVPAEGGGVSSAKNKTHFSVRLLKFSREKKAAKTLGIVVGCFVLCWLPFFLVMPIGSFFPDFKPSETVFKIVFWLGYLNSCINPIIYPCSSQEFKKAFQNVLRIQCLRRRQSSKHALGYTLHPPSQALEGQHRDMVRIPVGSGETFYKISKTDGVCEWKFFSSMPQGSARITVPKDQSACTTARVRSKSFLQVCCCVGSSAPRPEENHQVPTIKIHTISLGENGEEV
Briefly: Tested for its binding affinity against alpha-1 receptor in rat brain membrane. It is filed as cell membranes.

Assay [4] deals with Adrenergic receptor alpha (Rattus norvegicus) (UniProt P15823+P23944+P43140+P22086+P19328+P22909). In words: Ratio between EC50 values of alpha 1 and alpha 2 receptors. Type of assay: protein assay.

Five compounds from ChEMBL document CHEMBL1127588, “A structure-activity relationship study of benzylic modifications of 4-[1-(1-naphthyl)ethyl]-1H-imidazoles on alpha 1- and alpha 2-adrenergic receptors” (J Med Chem, 1994) can be followed below.

SMILES strings stand for the structures. Where only a bound is given, the exact number is not on record here.

Broadly, the Ki is the dissociation constant of the complex between target and ligand, obtained from inhibition or displacement. The low end stands for higher affinity, the high end for lower affinity. Consider `Cl.OC(c1c[nH]cn1)(c1cccc2ccccc12)C(F)(F)F` (stereo unspecified), for which, in assay [1], the Ratio is above 2. The Ki in assay [2] was above 24.539 µM; in assay [3], above 50 µM.
With `CC(c1c[nH]cn1)c1cccc2ccccc12` (stereo in doubt; S-(-)-2), the Ratio in assay [1] amounted to 22.3.
`CC(c1c[nH]cn1)c1cccc2ccccc12` (stereo in doubt; S-(+)-2): the results for the Ratio in assay [1] and in assay [4] were 41.9 and 752, respectively.
The corresponding values for `CC(c1c[nH]cn1)c1cccc2ccccc12` (stereo in doubt; 2) are 18.2 and 643.
Take `O=C(O)C(=O)O.O=C(c1c[nH]cn1)c1cccc2ccccc12`: in assay [1], the Ratio turned out to be 0.5. Further, the Ki in assay [2] worked out at 31.754 µM; in assay [3] it was 15.902 µM.
